Results: patent US9611257B2, “PRMT5 inhibitors and uses thereof” (Epizyme, Inc., priority 2012, dated 2017)

Target: T1, PRMT5/MEP50 (Homo sapiens, UniProt O14744)
T1 construct: Expressed full-length human Flag-PRMT5/6His-MeP50 protein complex was purified; made in house; host or cells: Spodoptera frugiperda (SF9) insect cells, baculovirus (pDEST8)
Assay: PRMT5 Biochemical Assay (PRMT5/MEP50 enzyme assay on peptide substrate, 3H-SAM Flashplate)
Settings: PRMT5/MEP50 4 nM, 3H-SAM 75 nM, peptide 40 nM, 30 min preincubation at 25 degrees Celsius
Method: • Mobile phase A: 4 L H2O\1.5 ml TFA; Mobile phase B: 4 L ACN\0.75 ml TFA • Column: HPLC-D: Innovation C18 UPLC Column 2.1×30 mm, 2.6 um • HPLC-E: Xtimate C18 2.1*30 mm*3 um • HPLC-H: Innovation C18 UPLC Column 2.1×30 mm, 2.6 um • Column temperature: 50° C.; Wavelength: 220 nm & 254 nm & 215 nm General HPLC Conditions (Basic) • Mobile phase A: 4 L H2O\2 ml NH4OH; Mobile phase B: Acetonitrile • Column: HPLC-B: XBridge C18 2.1*50 mm, 5 um • HPLC-C: Xbridge shield RP18 2.1*50 mm, 5 u • Column temperature: 30° C.; Wavelength: 220 nm & 254 nm & 215 nm General HPLC Conditions (Neutral) • Mobile phase A: H2O; Mobile phase B: Acetonitrile • Column: HPLC-B: XBridge C18 2.1*50 mm, 5 um • HPLC-C: Xbridge shield RP18 2.1*50 mm, 5 um • Column temperature: 30° C.; Wavelength: 220 nm & 254 nm & 215 nm Method A (0-30AB_6MIN) Flow Rate: 0.8 ml/min Gradient: 0% B to 30% B in 4.2 min, holding 30% B for 1 min, 30% B to 0% B in 0.01 min, holding 0% B for 1.09 min and then end. Method B (0-60AB_6MIN) • Flow Rate: 0.8 ml/min • Gradient: 0% B to 60% B in 4.2 min, holding 60% B for 1 min, 60% B to 0% B in 0.01 min, holding 0% B for 1.09 min and then end. Method C (10-80AB_6MIN) • Flow Rate: 0.8 ml/min • Gradient: 10% B to 80% B in 4.2 min, holding 80% B for 1 min, 80% B to 10% B in 0.01 min, holding 10% B for 1.09 min and then end. […]

T1 sequence (O14744 with tags, fused parts or gaps): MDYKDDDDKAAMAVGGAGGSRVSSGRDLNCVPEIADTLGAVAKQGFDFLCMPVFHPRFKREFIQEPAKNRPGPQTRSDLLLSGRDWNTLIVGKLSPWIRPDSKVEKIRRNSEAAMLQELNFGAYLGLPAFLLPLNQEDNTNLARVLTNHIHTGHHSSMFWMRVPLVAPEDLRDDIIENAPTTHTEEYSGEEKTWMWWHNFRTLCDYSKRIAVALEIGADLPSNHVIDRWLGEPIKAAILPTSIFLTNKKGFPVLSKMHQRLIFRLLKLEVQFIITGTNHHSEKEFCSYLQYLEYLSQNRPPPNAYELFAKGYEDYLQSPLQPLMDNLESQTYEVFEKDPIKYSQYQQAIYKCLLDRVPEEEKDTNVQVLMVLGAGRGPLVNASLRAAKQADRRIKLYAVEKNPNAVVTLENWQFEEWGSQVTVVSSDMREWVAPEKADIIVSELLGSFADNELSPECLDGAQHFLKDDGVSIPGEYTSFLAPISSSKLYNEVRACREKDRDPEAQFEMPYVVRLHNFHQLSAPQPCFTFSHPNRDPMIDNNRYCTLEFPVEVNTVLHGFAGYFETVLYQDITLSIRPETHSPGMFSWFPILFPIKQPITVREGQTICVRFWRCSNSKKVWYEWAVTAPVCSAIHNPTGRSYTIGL
T1 sequence (Q9BQA1 with tags, fused parts or gaps partner limits assumed): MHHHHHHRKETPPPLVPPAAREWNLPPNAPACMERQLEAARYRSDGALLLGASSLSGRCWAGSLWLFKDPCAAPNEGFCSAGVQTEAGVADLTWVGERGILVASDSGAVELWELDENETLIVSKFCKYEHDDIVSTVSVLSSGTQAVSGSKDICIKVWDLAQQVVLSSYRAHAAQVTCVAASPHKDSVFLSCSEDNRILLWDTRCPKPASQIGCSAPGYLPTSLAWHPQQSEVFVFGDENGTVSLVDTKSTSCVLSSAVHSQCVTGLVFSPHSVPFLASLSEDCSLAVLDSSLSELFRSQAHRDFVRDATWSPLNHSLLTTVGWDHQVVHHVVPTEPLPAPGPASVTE

## O=C(NC1CCOCC1)c1ccn(CC(O)CN2CCc3ccccc3C2)c(=O)c1 (centres unmarked) [Compound 33]
  IC50: 0.101 to 1 µM

## O=C(NC1CCOCC1)c1cc(=O)n(CC(O)CN2CCc3ccccc3C2)cn1 (centres unmarked) [Compound 34]
  IC50: 1 to 10 µM
